According to US6087355A, “Cephalosporin antibiotics” (Microcide Pharmaceuticals, Inc., priority 1996, dated 2000):
≈ marks a conversion by molar mass, not a printed value.

Key:
MRSA strains = conditions: in words, reported in background; cited from earlier work
E. faecium VanA(Van^R) = assay: In vitro MIC, agar dilution; type: cell-based; conditions: Enterococcus faecium, read-out: minimum inhibitory concentration (MIC)
Outline: (§1)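 Spots of about 10^4 cfu of log-phase culture were applied, and plates were incubated 16-20 h at 35-36 °C. MIC was the lowest concentration inhibiting growth.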

[1] = tested on: S. aureus PC1(Meth^S)(lac^+); assay: In vitro MIC, agar dilution; type: cell-based; conditions: Staphylococcus aureus, read-out: minimum inhibitory concentration (MIC)
Outline: as §1

E. faecium ATCC 35667 = assay: In vitro MIC, agar dilution; type: cell-based; conditions: Enterococcus faecium, ATCC35667, read-out: minimum inhibitory concentration (MIC)
Outline: as §1

E. faecium A491(Amp^R) = assay: In vitro MIC, agar dilution; type: cell-based; conditions: Enterococcus faecium, read-out: minimum inhibitory concentration (MIC)
Outline: as §1

E. coli ATCC 25992 = assay: In vitro MIC, agar dilution; type: cell-based; conditions: Escherichia coli, ATCC25992, read-out: minimum inhibitory concentration (MIC)
Outline: as §1

[2] = tested on: S. aureus Spain #356(Meth^R); assay: In vitro MIC, agar dilution; type: cell-based; conditions: Staphylococcus aureus, read-out: minimum inhibitory concentration (MIC)
Outline: as §1

[3] = tested on: S. aureus ATCC 33593(Meth^R); assay: In vitro MIC, agar dilution; type: cell-based; conditions: Staphylococcus aureus, ATCC33593, read-out: minimum inhibitory concentration (MIC)
Outline: as §1

E. faecalis ATCC 29212 = assay: In vitro MIC, agar dilution; type: cell-based; conditions: Enterococcus faecalis, ATCC29212, read-out: minimum inhibitory concentration (MIC)
Outline: as §1

[4] = tested on: S. aureus 76(Meth^R)(lac^+); assay: In vitro MIC, agar dilution; type: cell-based; conditions: Staphylococcus aureus, read-out: minimum inhibitory concentration (MIC)
Outline: as §1

[5] = tested on: S. aureus strain ATCC 13709 (methicillin-susceptible); assay: Murine model for lethal bacteremic peritonitis; type: in vivo, female Swiss-Webster mice; conditions: Staphylococcus aureus, ATCC13709, SC, 72 h
Outline: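 Female Swiss-Webster mice were challenged IP with an LD100 inoculum in 7% hog gastric mucin, then given test drug subcutaneously in twofold increments (0.01–512 mg/kg) as two equal doses at challenge and 2 h later, 10 mice per group. Survival was scored at 72 h; PD50 (total mg/kg) was derived by probit.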

In the case of `C[C@@H](O)[C@H]1C(=O)N2C(C(=O)O)=C(SCCN=CN)C[C@H]12` [Imipenem, imipenem, reference compound], the “activity against MRSA strains” value (MRSA strains) is given as “active against a few MRSA strains”, the MIC (E. faecium VanA(Van^R)) is given as 4 µg/mL (≈ 13.4 µM) and the MIC [1] is given as no more than 0.25 µg/mL. It also gave an MIC (E. faecium ATCC 35667) of 4 µg/mL (≈ 13.4 µM), an MIC (E. faecium A491(Amp^R)) greater than 128 µg/mL and an MIC (E. coli ATCC 25992) of no more than 0.25 µg/mL. It also gave an MIC [2] of 32 µg/mL (≈ 107 µM), an MIC [3] of 32 µg/mL (≈ 107 µM) and an MIC (E. faecalis ATCC 29212) of no more than 0.25 µg/mL. For the same compound, the MIC [4] was 32 µg/mL (≈ 107 µM), the responders at 0.039 mg/kg ([5]; Dose 0.039 mg/kg, read-out: Survivors) was 30% and the responders at 0.078 mg/kg ([5]; Dose 0.078 mg/kg, read-out: Survivors) was 60%. It also gave a responders at 0.156 mg/kg ([5]; Dose 0.156 mg/kg, read-out: Survivors) of 100%, a responders at 0.3125 mg/kg ([5]; Dose 0.3125 mg/kg, read-out: Survivors) of 100% and a responders at 0.625 mg/kg ([5]; Dose 0.625 mg/kg, read-out: Survivors) of 100%. It also gave an ED50 ([5]; two equal doses, IP challenge, read-out: ED50) of 0.06 mg/kg.
